Active and inactive are the calls of the source.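 The calls were made as follows: active = compounds giving half or more protection of infected cells from virus-caused growth loss, again on retest; inactive = the rest.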
System: CEM cells HIV-1 protection, formazan growth assay
Experiment: NCI AIDS Antiviral Assay
Details: for IC50: measured here: growth of uninfected CEM cells
Summary of the method: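 Protection of CEM cells against HIV-1 measured as cell growth via soluble formazan read-out, with five concentrations tested on both infected and uninfected cells; failure to protect may reflect toxicity.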

| SMILES | EC50 | IC50 | outcome |
| --- | --- | --- | --- |
| O=C(Cn1c(=O)oc2ccc(C(=O)c3ccc(F)cc3)cc21)c1ccccc1 | > 200 µM | 123 µM |  |
| COC(=S)NP(=O)(NC(=S)OC)NC(=S)OC | > 200 µM | > 200 µM |  |
| CCOC(=O)CN1C(=O)C(=O)c2ccccc21 | > 200 µM | 33.9 µM |  |
| C[n+]1c(-c2ccc(/C=N/Nc3n[nH]c(=S)n3N/N=C/c3ccc(-c4cn5ccccc5[n+]4C)cc3)cc2)cn2ccccc21 | 18.6 µM | > 200 µM |  |
| CC(C)OP(=O)(OC(C)C)C(=Nc1ccccc1)NNc1ccc([N+](=O)[O-])cc1 | > 32.4 µM | 21.9 µM |  |
| N=C(N)SCC1OCOC1C1OCOC1CSC(=N)N (centres undefined) | > 776 µM | > 776 µM |  |
| CCOc1ccnc2c(OC)c(C)c3nc4ccccc4nc3c12 | > 100 µM | > 100 µM |  |
| c1cc2nc(c1)CSCCCCCCCCSC2 | > 35.5 µM | > 35.5 µM |  |
| NC(=O)c1cn(Cc2ccccc2)c(=O)n1Cc1ccccc1 | > 117 µM | > 117 µM |  |
| COc1cc(C(=O)Nc2cccc3ccccc23)c(Br)c(OC)c1OC | > 45.7 µM | > 45.7 µM |  |
| COc1cc2c(cc1OC)C1Cc3ccc(OC)c(OC)c3C[N+]1([O-])CC2 (centres undefined) | > 135 µM | > 135 µM |  |
| CC(C)NC(=O)OCc1c(COC(=O)NC(C)C)n(C)c2c1ccc1cc(Cl)c(Cl)cc12 | > 200 µM | 2.95 µM |  |
| Cc1cc(N=O)cc(Cl)c1O | > 200 µM | 10.5 µM |  |
| O=C1[C@@H]2C(c3cccc([N+](=O)[O-])c3)=NO[C@@H]2C(=O)N1c1ccc(Cc2ccc(N3C(=O)[C@H]4C(c5cccc([N+](=O)[O-])c5)=NO[C@H]4C3=O)cc2)cc1 | > 38 µM | > 38 µM |  |
| CC1=NN2C(=O)C(C)SC2=NC(C)(C)C1 (centres undefined) | > 1120 µM | > 1120 µM |  |
| COc1ccc(NC(=O)C(=O)Cc2ccc([N+](=O)[O-])c([N+](=O)[O-])c2CC(=O)C(=O)Nc2ccc(OC)cc2OC)c(OC)c1 | > 407 µM | 186 µM |  |
| O=C(CNC(=O)Nc1ccc(NC(=O)NCC(=O)Nc2ccc(C3=NCCN3)cc2)cc1)Nc1ccc(C2=NCCN2)cc1 | 81.3 µM | > 200 µM |  |
| COc1cc(/C=C2\Sc3scc(-c4cccc([N+](=O)[O-])c4)[n+]3C2=O)cc(OC)c1OC | > 200 µM | 9.77 µM |  |
| O=S(=O)(N(c1ccc(Cl)cn1)S(=O)(=O)C(F)(F)F)C(F)(F)F | > 200 µM | > 200 µM |  |
| c1ccc(-c2cc3ccc4cccnc4c3o2)cc1 | > 107 µM | 56.2 µM |  |

| SMILES | EC50 | IC50 | outcome |
| --- | --- | --- | --- |
| O=C(NNc1ccnc2cc(Cl)ccc12)/C(=C\c1ccccc1Cl)NC(=O)c1ccccc1 | > 100 µM | 56.2 µM |  |
| CC1(C)CC(=O)c2c(N)n[nH]c2C1 | 11.2 µM | > 200 µM |  |
| O=c1c2c([nH]c3ccccc13)CSC2 | > 67.6 µM | > 67.6 µM |  |
| COc1cc(C2C3C=CC=C4CC=CC(=C43)C3CCC(=O)N32)cc(OC)c1OC (centres undefined) | > 200 µM | > 200 µM |  |
| Cc1c([O-])c([O-])c(-c2c([O-])c([O-])c(C)c3c2OCO3)c2c1OCO2.[C-]#[O+].[C-]#[O+].[C-]#[O+].[C-]#[O+].[C-]#[O+].[C-]#[O+].[C-]#[O+].[C-]#[O+].[Re].[Re] | > 174 µM | 93.3 µM |  |
| CC1CC(Nc2ccc(NC3=CC(=O)OC(C)C3)cc2)=CC(=O)O1 (centres undefined) | > 200 µM | > 200 µM |  |
| CN(C)CCN1C(=O)C2C3CCC(C)(O3)C2C1=O (centres undefined) | > 200 µM | > 200 µM |  |
| CC1(C)C2CCC1(CS(=O)(=O)Nc1ccccc1)C(=O)C2 (centres undefined) | > 200 µM | > 200 µM |  |
| N#CS/C(C(Cl)=C(Cl)Cl)=C(/Cl)[N+](=O)[O-] | > 200 µM | 8.32 µM |  |
| CC1=CC=NN2C(=O)[C@H](C)C2C1 (some centres undefined) | > 1510 µM | > 1510 µM |  |
| CCNc1cc2c(cc1O)CC[C@@H]1[C@@H]2CC[C@]2(C)[C@@H](O)CC[C@@H]12 | > 200 µM | 3.89 µM |  |
| Cc1ccc(C(=O)N2CCN(C(=O)c3ccc(C)cc3)c3ccccc32)cc1 | > 10.2 µM | 1.82 µM |  |
| Clc1nc(Cl)nc(NC23CC4CC(CC(C4)C2)C3)n1 | > 200 µM | 107 µM |  |
| COc1ccc(OC)c(Cc2c(OC)ccc(OC)c2O)c1O |  |  | inactive |
| [N-]=[N+]=CC(=O)C1CCN(c2ccccc2)C1=O (centres undefined) | > 200 µM | > 200 µM |  |
| CCC(c1nc2ccccc2c(=O)n1NC(=O)C(C)(C)C)C1(O)CCCCC1 (centres undefined) | > 200 µM | 107 µM |  |
| CCCCCCCCCCC[N+]1(Cc2ccccc2)CC2CCN(Cc3ccccc3)CC2C1 (centres undefined) | > 2 µM | 0.234 µM |  |
| CCOc1ccc(/C=C(\Cl)c2ccc(OC)cc2)cc1 | > 200 µM | > 200 µM |  |
| Cc1cc2occ(/C=C\C3=C(C#N)C(=O)OC(C)(C)C3)c(=O)c2cc1C | > 7.76 µM | > 7.76 µM |  |
| C=CCSCn1ncc2ccc([N+](=O)[O-])cc21 | > 200 µM | 33.9 µM |  |
